# Measurements from ChEMBL document CHEMBL4630907 (2021).
# Calls of active or inactive are those of the source. The calls are words filed in the database; no cut-off is given here.
# Legend:
# [1] = target: GABA-A receptor; anion channel; test: GPCRScan assay: inhibition of GABAA/BZP; assay type: protein-complex assay, Rattus norvegicus; set-up: radioligand conc. used [nm] 0.6 – 4.0, parental cells brain tissue
# [2] = target: T1, Bromodomain-containing protein 3 (Homo sapiens, UniProt Q15059); test: BET mutant TR-FRETassay (BRD3 BD1)
# [3] = target: ATPase family AAA domain-containing protein 2 (Homo sapiens, UniProt Q6PL18); test: ATAD2A DiscoverX BROMOscan
# [4] = target: 5-hydroxytryptamine receptor 3A (Homo sapiens) (UniProt P46098); details: Compound concentration 10.0 uM
# [5] = target: Voltage-gated potassium channel, IKs; KCNQ1(Kv7.1)/KCNE1(MinK) (Homo sapiens, UniProt P15382+P51787); test: Cross screening panel; assay type: protein-complex assay
# [6] = target: D(4) dopamine receptor (Homo sapiens) (UniProt P21917); details: Compound concentration 10.0 uM
# [7] = target: T2, Transcription intermediary factor 1-alpha (Homo sapiens, UniProt O15164); test: TRIM24(BROMO.) DiscoverX BROMOscan
# [8] = target: Sodium-dependent dopamine transporter (Homo sapiens) (UniProt Q01959); details: Compound concentration 10.0 uM
# [9] = target: T2, Transcription intermediary factor 1-alpha; test: TRIM24(PHD,Bromo.) DiscoverX BROMOscan
# [10] = target: Histamine H2 receptor (Homo sapiens) (UniProt P25021); details: Compound concentration 10.0 uM
# [11] = target: Nucleosome-remodeling factor subunit BPTF (Homo sapiens, UniProt Q12830); test: FALZ DiscoverX BROMOscan
# Protein polybromo-1 [12] = target: T3, Protein polybromo-1 (Homo sapiens, UniProt Q86U86); test: PBRM1(5) DiscoverX BROMOscan
# [13] = target: Histone acetyltransferase KAT2A (Homo sapiens, UniProt Q92830); test: GCN5L2 DiscoverX BROMOscan
# [14] = target: 5-hydroxytryptamine receptor 1A (Homo sapiens) (UniProt P08908); details: Compound concentration 10.0 uM
# [15] = target: Beta-2 adrenergic receptor (Homo sapiens, UniProt P07550); details: Compound concentration 10.0 uM
# [16] = target: T4, Bromodomain-containing protein 2 (Homo sapiens, UniProt P25440); test: BET mutant TR-FRET assay (BRD2 BD1)
# Target sequence in this assay (P25440 whole entry, looked up, change not shown): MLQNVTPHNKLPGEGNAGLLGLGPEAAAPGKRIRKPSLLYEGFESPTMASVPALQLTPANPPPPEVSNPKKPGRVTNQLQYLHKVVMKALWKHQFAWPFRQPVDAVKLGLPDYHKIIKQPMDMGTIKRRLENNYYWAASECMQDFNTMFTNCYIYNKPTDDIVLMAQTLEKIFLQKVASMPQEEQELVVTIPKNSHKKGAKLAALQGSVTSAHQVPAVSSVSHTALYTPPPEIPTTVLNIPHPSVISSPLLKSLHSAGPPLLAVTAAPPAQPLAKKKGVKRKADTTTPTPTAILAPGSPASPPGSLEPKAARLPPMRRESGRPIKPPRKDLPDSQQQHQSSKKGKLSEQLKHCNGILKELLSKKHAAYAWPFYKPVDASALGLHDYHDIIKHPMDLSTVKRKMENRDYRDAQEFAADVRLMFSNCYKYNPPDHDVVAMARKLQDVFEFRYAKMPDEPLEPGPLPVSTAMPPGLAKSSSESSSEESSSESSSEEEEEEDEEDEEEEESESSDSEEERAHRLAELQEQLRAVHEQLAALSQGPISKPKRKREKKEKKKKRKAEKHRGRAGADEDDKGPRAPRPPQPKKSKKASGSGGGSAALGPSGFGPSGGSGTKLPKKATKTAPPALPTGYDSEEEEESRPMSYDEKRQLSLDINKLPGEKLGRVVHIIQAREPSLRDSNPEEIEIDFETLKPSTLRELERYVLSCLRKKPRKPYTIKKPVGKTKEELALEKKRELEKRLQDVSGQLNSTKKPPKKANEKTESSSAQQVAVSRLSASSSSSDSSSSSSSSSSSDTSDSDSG
# [17] = target: 5-hydroxytryptamine receptor 1D (Homo sapiens) (UniProt P28221); details: Compound concentration 10.0 uM
# Protein polybromo-1 [18] = target: T3, Protein polybromo-1; test: PBRM1(2) DiscoverX BROMOscan
# [19] = target: Histone acetyltransferase p300 (Homo sapiens, UniProt Q09472); test: EP300 DiscoverX BROMOscan
# [20] = target: Bromodomain and WD repeat-containing protein 1 (Homo sapiens, UniProt Q9NSI6); test: WDR9(2) DiscoverX BROMOscan
# [21] = target: Sigma intracellular receptor 2 (Homo sapiens) (UniProt Q5BJF2); details: Compound concentration 10.0 uM
# [22] = target: Transcription initiation factor TFIID subunit 1-like (Homo sapiens, UniProt Q8IZX4); test: TAF1L(2) DiscoverX BROMOscan
# [23] = target: 5-hydroxytryptamine receptor 2C (Homo sapiens) (UniProt P28335); details: Compound concentration 10.0 uM
# [24] = target: Bromodomain-containing protein 1 (Homo sapiens, UniProt O95696); test: BRD1 DiscoverX BROMOscan
# [25] = target: SWI/SNF-related matrix-associated actin-dependent regulator of chromatin subfamily A member 2 (Homo sapiens, UniProt P51531); test: SMARCA2 DiscoverX BROMOscan
# [26] = target: ATPase family AAA domain-containing protein 2B (Homo sapiens, UniProt Q9ULI0); test: ATAD2B DiscoverX BROMOscan
# [27] = target: GABA-A receptor; anion channel; test: GPCRScan assay: inhibition of GABAA; assay type: protein-complex assay, Rattus norvegicus; set-up: radioligand conc. used [nm] 9.50 – 25.0, parental cells brain tissue
# [28] = target: Histamine H3 receptor (Homo sapiens) (UniProt Q9Y5N1); details: Compound concentration 10.0 uM
# [29] = target: Bromodomain and PHD finger-containing protein 3 (Homo sapiens, UniProt Q9ULD4); test: BRPF3 DiscoverX BROMOscan
# [30] = target: T4, Bromodomain-containing protein 2; test: TR-FRET assay (BRD2 BD2)
# Target sequence in this assay (P25440 whole entry): as the sequence (P25440 whole entry, looked up, change not shown) above
# [31] = target: GABA-A receptor; anion channel (Rattus norvegicus) (UniProt O09028+P15431+P18506+P18508+P19969+P20236+P23574+P23576+P28471+P28473+P30191+P62813+P63079+P63138+Q91ZM7+Q9ES14); details: Compound concentration 10.0 uM
# [32] = target: T1, Bromodomain-containing protein 3; test: TR-FRET assay (BRD3 BD2)
# Target sequence in this assay (Q15059 whole entry, the tested form may be a part): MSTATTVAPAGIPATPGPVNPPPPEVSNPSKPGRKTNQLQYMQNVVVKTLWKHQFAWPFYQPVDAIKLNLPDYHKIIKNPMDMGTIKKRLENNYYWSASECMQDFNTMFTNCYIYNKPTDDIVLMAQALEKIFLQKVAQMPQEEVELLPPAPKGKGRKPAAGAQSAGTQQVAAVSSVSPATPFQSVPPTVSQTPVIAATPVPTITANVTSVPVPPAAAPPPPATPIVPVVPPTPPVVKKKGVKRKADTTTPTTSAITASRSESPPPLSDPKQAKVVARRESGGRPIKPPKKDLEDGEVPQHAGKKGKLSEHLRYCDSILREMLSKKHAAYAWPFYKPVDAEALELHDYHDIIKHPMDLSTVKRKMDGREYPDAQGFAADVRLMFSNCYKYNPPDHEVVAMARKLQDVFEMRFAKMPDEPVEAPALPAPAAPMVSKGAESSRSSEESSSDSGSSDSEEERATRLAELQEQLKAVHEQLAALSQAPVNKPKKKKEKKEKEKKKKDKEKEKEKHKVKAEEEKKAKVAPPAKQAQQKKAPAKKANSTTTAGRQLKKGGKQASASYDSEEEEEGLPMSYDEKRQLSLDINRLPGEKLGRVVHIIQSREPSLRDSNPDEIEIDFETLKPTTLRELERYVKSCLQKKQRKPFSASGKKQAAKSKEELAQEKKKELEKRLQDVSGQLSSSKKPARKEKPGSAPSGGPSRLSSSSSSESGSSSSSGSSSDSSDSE
# [33] = target: 5-hydroxytryptamine receptor 5A (Homo sapiens) (UniProt P47898); details: Compound concentration 10.0 uM
# [34] = target: T1, Bromodomain-containing protein 3; test: BRD3(2) DiscoverX BROMOscan
# Target sequence in this assay (Q15059 whole entry, the tested form may be a part): as above
# [35] = target: Muscarinic acetylcholine receptor M5 (Homo sapiens) (UniProt P08912); details: Compound concentration 10.0 uM
# [36] = target: Bromodomain adjacent to zinc finger domain protein 2B (Homo sapiens, UniProt Q9UIF8); test: BAZ2B DiscoverX BROMOscan
# [37] = target: T4, Bromodomain-containing protein 2; test: TR-FRET assay (BRD2 BD1)
# Target sequence in this assay (P25440 whole entry): as the sequence (P25440 whole entry, looked up, change not shown) above
# [38] = target: Alpha-2C adrenergic receptor (Homo sapiens) (UniProt P18825); details: Compound concentration 10.0 uM
# [39] = target: Alpha-1D adrenergic receptor (Homo sapiens) (UniProt P25100); details: Compound concentration 10.0 uM
# [40] = target: Chromatin remodeling regulator CECR2 (Homo sapiens, UniProt Q9BXF3); test: CECR2 DiscoverX BROMOscan
# [41] = target: Alpha-2A adrenergic receptor (Homo sapiens) (UniProt P08913); details: Compound concentration 10.0 uM
# D(3) dopamine receptor = D(3) dopamine receptor (Homo sapiens, UniProt P35462); details: Compound concentration 10.0 uM
# [42] = target: Bromodomain-containing protein 9 (Homo sapiens, UniProt Q9H8M2); test: BRD9 DiscoverX BROMOscan
# [43] = target: Bromodomain-containing protein 7 (Homo sapiens, UniProt Q9NPI1); test: BRD7 DiscoverX BROMOscan
# [44] = target: Bromodomain adjacent to zinc finger domain protein 2A (Homo sapiens, UniProt Q9UIF9); test: BAZ2A DiscoverX BROMOscan
# Mu-type opioid receptor = Mu-type opioid receptor (Homo sapiens, UniProt P35372); details: Compound concentration 10.0 uM
# [45] = target: T4, Bromodomain-containing protein 2; test: BET mutant TR-FRET assay (BRD2 BD2)
# Target sequence in this assay (P25440 whole entry, looked up, change not shown): as above
# [46] = target: T1, Bromodomain-containing protein 3; test: BRD3 Bromoscan (DiscoverX)
# Target sequence in this assay (Q15059 whole entry, the tested form may be a part): as the sequence (Q15059 whole entry, the tested form may be a part) above
# [47] = target: Alpha-1A adrenergic receptor (Homo sapiens) (UniProt P35348); details: Compound concentration 10.0 uM
# [48] = target: T1, Bromodomain-containing protein 3; test: BRD3(1) DiscoverX BROMOscan
# Target sequence in this assay (Q15059 whole entry, the tested form may be a part): as above
# T3 sequence (Q86U86 whole entry): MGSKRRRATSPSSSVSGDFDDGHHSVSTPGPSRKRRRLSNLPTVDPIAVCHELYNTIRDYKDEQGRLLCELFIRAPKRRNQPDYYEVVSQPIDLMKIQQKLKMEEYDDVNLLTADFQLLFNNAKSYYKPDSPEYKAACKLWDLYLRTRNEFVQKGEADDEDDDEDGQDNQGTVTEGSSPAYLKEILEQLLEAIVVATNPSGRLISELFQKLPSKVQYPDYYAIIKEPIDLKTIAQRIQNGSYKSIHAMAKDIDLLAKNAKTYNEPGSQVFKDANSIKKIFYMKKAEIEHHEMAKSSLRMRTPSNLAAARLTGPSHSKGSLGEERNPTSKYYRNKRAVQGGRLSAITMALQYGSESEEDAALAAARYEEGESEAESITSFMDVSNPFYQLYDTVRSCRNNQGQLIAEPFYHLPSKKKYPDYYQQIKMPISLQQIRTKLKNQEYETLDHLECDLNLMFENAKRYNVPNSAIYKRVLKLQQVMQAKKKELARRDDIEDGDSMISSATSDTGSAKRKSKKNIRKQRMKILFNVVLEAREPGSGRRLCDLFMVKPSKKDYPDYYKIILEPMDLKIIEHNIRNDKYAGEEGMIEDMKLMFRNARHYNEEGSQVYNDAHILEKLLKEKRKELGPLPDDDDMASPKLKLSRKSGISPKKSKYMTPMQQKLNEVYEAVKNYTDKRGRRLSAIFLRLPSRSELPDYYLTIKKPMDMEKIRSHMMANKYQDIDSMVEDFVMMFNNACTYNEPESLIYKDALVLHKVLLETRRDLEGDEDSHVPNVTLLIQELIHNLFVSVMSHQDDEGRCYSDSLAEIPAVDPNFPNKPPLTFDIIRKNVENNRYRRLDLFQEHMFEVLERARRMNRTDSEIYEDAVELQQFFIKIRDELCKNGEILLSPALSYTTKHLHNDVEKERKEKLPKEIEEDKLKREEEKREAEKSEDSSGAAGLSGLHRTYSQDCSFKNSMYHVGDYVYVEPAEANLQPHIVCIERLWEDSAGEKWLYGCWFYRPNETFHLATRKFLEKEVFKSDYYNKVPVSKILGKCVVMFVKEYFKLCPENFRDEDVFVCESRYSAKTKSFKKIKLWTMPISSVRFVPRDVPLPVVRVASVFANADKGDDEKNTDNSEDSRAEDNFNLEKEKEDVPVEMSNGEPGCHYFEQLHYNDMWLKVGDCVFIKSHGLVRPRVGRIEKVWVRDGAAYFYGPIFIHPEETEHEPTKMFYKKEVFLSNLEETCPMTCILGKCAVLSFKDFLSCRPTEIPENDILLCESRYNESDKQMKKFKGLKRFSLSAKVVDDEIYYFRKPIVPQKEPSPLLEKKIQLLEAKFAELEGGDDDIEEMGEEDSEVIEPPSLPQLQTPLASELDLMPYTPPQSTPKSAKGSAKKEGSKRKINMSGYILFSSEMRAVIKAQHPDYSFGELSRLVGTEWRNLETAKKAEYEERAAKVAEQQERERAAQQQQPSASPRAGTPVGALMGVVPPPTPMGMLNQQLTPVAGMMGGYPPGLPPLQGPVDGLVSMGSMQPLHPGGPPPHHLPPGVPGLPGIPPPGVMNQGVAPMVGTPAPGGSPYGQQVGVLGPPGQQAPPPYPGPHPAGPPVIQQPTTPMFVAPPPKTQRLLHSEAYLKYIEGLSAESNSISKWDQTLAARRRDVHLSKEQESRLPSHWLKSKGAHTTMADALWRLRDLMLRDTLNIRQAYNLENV
# Sequence of Alpha-1A adrenergic receptor (Homo sapiens) (P35348 whole entry): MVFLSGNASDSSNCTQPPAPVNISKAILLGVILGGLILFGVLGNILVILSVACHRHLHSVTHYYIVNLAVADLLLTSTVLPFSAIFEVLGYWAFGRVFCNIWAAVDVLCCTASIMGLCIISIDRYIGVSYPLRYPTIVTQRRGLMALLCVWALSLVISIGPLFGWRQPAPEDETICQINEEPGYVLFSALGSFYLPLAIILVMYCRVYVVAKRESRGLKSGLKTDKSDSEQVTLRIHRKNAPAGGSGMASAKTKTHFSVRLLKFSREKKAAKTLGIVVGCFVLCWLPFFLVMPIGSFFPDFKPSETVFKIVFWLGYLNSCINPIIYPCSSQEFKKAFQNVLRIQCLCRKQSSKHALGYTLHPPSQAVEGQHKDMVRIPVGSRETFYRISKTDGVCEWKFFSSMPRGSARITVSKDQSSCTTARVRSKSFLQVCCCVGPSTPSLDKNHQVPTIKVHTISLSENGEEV
# Sequence of D(3) dopamine receptor (P35462 whole entry): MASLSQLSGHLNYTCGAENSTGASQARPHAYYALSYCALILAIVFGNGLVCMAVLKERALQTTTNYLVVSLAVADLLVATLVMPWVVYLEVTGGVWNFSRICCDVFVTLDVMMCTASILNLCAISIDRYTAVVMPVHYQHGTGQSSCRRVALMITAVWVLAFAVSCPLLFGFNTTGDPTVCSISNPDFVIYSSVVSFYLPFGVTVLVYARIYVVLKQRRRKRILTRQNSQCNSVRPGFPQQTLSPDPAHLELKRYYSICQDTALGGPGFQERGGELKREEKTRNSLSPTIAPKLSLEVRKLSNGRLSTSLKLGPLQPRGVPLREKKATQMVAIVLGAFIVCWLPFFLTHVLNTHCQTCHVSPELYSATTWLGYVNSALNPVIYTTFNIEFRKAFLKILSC
smiles,measurement,setting,value
COCc1nc2cnc3cc(-c4c(C)noc4C)c(OC[C@H]4CCNC4)cc3c2n1[C@H](C)c1ccccc1 [GSK778],Ki,[1],1.97 µM
same,pKi,[1],5.75
same,pIC50,[2],7.4
same,Kd,[3],30 µM
same,inhibition,[4],69.8%
same,IC50,[5],> 25.1 µM
same,inhibition,[6],79.5%
same,Kd,[7],30 µM
same,inhibition,[8],27.9%
same,Kd,[9],30 µM
same,inhibition,[10],12.3%
same,Kd,[11],30 µM
same,Kd,Protein polybromo-1 [12],30 µM
same,Kd,[13],30 µM
same,inhibition,[14],15.3%
same,inhibition,[15],18.4%
same,pIC50,[16],7.1
same,inhibition,[17],14.8%
same,Kd,Protein polybromo-1 [18],29 µM
same,Kd,[19],5.7 µM
same,Kd,[20],30 µM
same,inhibition,[21],23%
same,Kd,[22],30 µM
same,inhibition,[23],-0.02%
same,Kd,[24],30 µM
same,Kd,[25],30 µM
same,Kd,[26],25 µM
same,Ki,[27],1.6 µM
same,pKi,[27],5.81
same,inhibition,[28],-5.03%
same,Kd,[29],30 µM
same,IC50,[30],3.95 µM (not active)
same,inhibition,[31],91.6%
same,IC50,[32],1.21 µM (not active)
same,inhibition,[33],21.5%
same,Kd,[34],0.31 µM
same,inhibition,[35],24.6%
same,Kd,[36],30 µM
same,IC50,[37],0.075 µM (active)
same,inhibition,[38],15.3%
same,inhibition,[39],17%
same,Kd,[40],30 µM
same,inhibition,[41],9.95%
same,inhibition,D(3) dopamine receptor,62.4%
same,Kd,[42],30 µM
same,Kd,[43],30 µM
same,Kd,[44],30 µM
same,inhibition,Mu-type opioid receptor,16.9%
same,pIC50,[45],5.5
same,Kd,[46],0.005 µM (active)
same,inhibition,[47],0.31%
same,Kd,[48],0.005 µM
